Measurements reported in ChEMBL document CHEMBL1201862, “PubChem BioAssay data set” (2004).
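These data come from cells grown in 96-well plates and exposed to compound for 48 hours at five concentrations. GI50 marks 50% less growth.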 The source made the active and inactive calls. Rule as the data show it: active = GI50 up to about 1.1 µM and inactive = higher.

How the values were obtained:
Test in all cases: inhibition of tumour cell growth, NCI panel, 48 h
UO-31 = tested on: UO-31
DU-145 = tested on: DU-145
Hs-578T = tested on: Hs-578T
UACC-257 = tested on: UACC-257
SN12C = tested on: SN12C
SNB-75 = tested on: SNB-75
OVCAR-4 = tested on: OVCAR-4
LOX IMVI = tested on: LOX IMVI
A549 = tested on: A549
SF-268 = tested on: SF-268
SF-539 = tested on: SF-539
IGROV-1 = tested on: IGROV-1
NCI-H460 = tested on: NCI-H460
SR = tested on: SR
COLO 205 = tested on: COLO 205
CAKI-1 = tested on: CAKI-1
HCT-116 = tested on: HCT-116
NCI/ADR-RES = tested on: NCI/ADR-RES
Malme-3M = tested on: Malme-3M
SK-MEL-5 = tested on: SK-MEL-5
HL-60 = tested on: HL-60
K562 = tested on: K562
SF-295 = tested on: SF-295
HCC 2998 = tested on: HCC 2998
MDA-MB-231 = tested on: MDA-MB-231
OVCAR-5 = tested on: OVCAR-5
CCRF-CEM = tested on: CCRF-CEM
HT-29 = tested on: HT-29
786-0 = tested on: 786-0
UACC-62 = tested on: UACC-62
SW-620 = tested on: SW-620
A498 = tested on: A498
BT-549 = tested on: BT-549
MDA-N = tested on: MDA-N
NCI-H226 = tested on: NCI-H226
HOP-62 = tested on: HOP-62
SK-MEL-28 = tested on: SK-MEL-28
MOLT-4 = tested on: MOLT-4
MCF7 = tested on: MCF7
ACHN = tested on: ACHN
SK-OV-3 = tested on: SK-OV-3
KM12 = tested on: KM12
U-251 = tested on: U-251
EKVX = tested on: EKVX
TK-10 = tested on: TK-10
OVCAR-3 = tested on: OVCAR-3
M14 = tested on: M14
NCI-H23 = tested on: NCI-H23
HOP-92 = tested on: HOP-92
RPMI-8226 = tested on: RPMI-8226
SNB-19 = tested on: SNB-19
PC-3 = tested on: PC-3
T47D = tested on: T47D
RXF 393 = tested on: RXF 393
MDA-MB-435 = tested on: MDA-MB-435
NCI-H522 = tested on: NCI-H522
HCT-15 = tested on: HCT-15
OVCAR-8 = tested on: OVCAR-8
SK-MEL-2 = tested on: SK-MEL-2

## C[Si](C)(C)OC1(C#N)c2ccccc2CCCC12CCCC2 (centres undefined)
UO-31
  GI50: 99.5 µM (inactive)
DU-145
  GI50: 61.1 µM (inactive)
Hs-578T
  GI50: 62.1 µM (inactive)
UACC-257
  GI50: 21.4 µM (inactive)
SN12C
  GI50: 59.4 µM (inactive)
SNB-75
  GI50: 49.8 µM (inactive)
OVCAR-4
  GI50: 80 µM (inactive)
LOX IMVI
  GI50: 22 µM (inactive)
A549
  GI50: 34.9 µM (inactive)
SF-268
  GI50: 57.4 µM (inactive)
SF-539
  GI50: 53.5 µM (inactive)
IGROV-1
  GI50: 43.3 µM (inactive)
NCI-H460
  GI50: 37.6 µM (inactive)
SR
  GI50: 29.6 µM (inactive)
COLO 205
  GI50: 37.1 µM (inactive)
CAKI-1
  GI50: > 100 µM (inactive)
HCT-116
  GI50: 26.6 µM (inactive)
NCI/ADR-RES
  GI50: 89.5 µM (inactive)
Malme-3M
  GI50: 39.4 µM (inactive)
SK-MEL-5
  GI50: 24.1 µM (inactive)
HL-60
  GI50: 17.8 µM (inactive)
K562
  GI50: 34.7 µM (inactive)
SF-295
  GI50: 34 µM (inactive)
HCC 2998
  GI50: 16.4 µM (inactive)
MDA-MB-231
  GI50: 50.9 µM (inactive)
OVCAR-5
  GI50: > 100 µM (inactive)
CCRF-CEM
  GI50: 19.6 µM (inactive)
HT-29
  GI50: 27.8 µM (inactive)
786-0
  GI50: 54.7 µM (inactive)
UACC-62
  GI50: 80.2 µM (inactive)
SW-620
  GI50: 44.9 µM (inactive)
A498
  GI50: 46.6 µM (inactive)
BT-549
  GI50: > 100 µM (inactive)
MDA-N
  GI50: 46 µM (inactive)
NCI-H226
  GI50: > 100 µM (inactive)
HOP-62
  GI50: 67.9 µM (inactive)
SK-MEL-28
  GI50: 44.5 µM (inactive)
MOLT-4
  GI50: 23.1 µM (inactive)
MCF7
  GI50: 30.1 µM (inactive)
ACHN
  GI50: 30.1 µM (inactive)
SK-OV-3
  GI50: > 100 µM (inactive)
KM12
  GI50: 42.8 µM (inactive)
U-251
  GI50: 29.4 µM (inactive)
EKVX
  GI50: 31.3 µM (inactive)
TK-10
  GI50: > 100 µM (inactive)
OVCAR-3
  GI50: 46 µM (inactive)
M14
  GI50: 48.3 µM (inactive)
NCI-H23
  GI50: 45.7 µM (inactive)
HOP-92
  GI50: 29.1 µM (inactive)
RPMI-8226
  GI50: 21.6 µM (inactive)
SNB-19
  GI50: 44 µM (inactive)
PC-3
  GI50: 41.1 µM (inactive)
T47D
  GI50: 24.7 µM (inactive)
RXF 393
  GI50: 26.5 µM (inactive)
MDA-MB-435
  GI50: 44.1 µM (inactive)
NCI-H522
  GI50: 21.9 µM (inactive)
HCT-15
  GI50: 39 µM
OVCAR-8
  GI50: 50.9 µM (inactive)
SK-MEL-2
  GI50: 18.5 µM (inactive)
